Assay results taken from paper PMC5218480 (PLoS ONE, 2017).

Tested on: MV-4-11 cells
Experiment: Gene expression microarray analysis (Affymetrix PrimeView) and GSEA
Format: cell-based, human
Parameters: RFU PODN (11730768_x_at) / Fold change /veh PODN (11730768_x_at) / RFU LINC00158 (11744669_a_at) / Fold change /veh LINC00158 (11744669_a_at) / RFU DUSP10 (11751237_a_at) / Fold change /veh DUSP10 (11751237_a_at) / RFU ID3 (11757404_x_at) / Fold change /veh ID3 (11757404_x_at) / RFU PLEKHG5 (11737974_s_at) / Fold change /veh PLEKHG5 (11737974_s_at) / RFU LRRC4B (11730491_at) / Fold change /veh LRRC4B (11730491_at) / RFU GIMAP4 (11747438_a_at) / Fold change /veh GIMAP4 (11747438_a_at) / RFU KRT8 (11758183_x_at) / Fold change /veh KRT8 (11758183_x_at) / RFU CNN1 (11734310_a_at) / Fold change /veh CNN1 (11734310_a_at) / RFU VPS37D (11726825_at) / Fold change /veh VPS37D (11726825_at) / RFU C10orf10 (11716522_x_at) / Fold change /veh C10orf10 (11716522_x_at) / RFU KIR2DL2 /// KIR2DL4 /// KIR2DL5A /// KIR2DL5B /// KIR2DS1 /// KIR2DS2 /// KIR2DS3 /// KIR2DS4 /// KIR3DL3 /// KIR3DL3 /// KIR3DS1 (11738374_at) / Fold change /veh KIR2DL2 /// KIR2DL4 /// KIR2DL5A /// KIR2DL5B /// KIR2DS1 /// KIR2DS2 /// KIR2DS3 /// KIR2DS4 /// KIR3DL3 /// KIR3DL3 /// KIR3DS1 (11738374_at) / RFU C1QL1 (11718748_at) / Fold change /veh C1QL1 (11718748_at) / RFU TMPRSS4 (11747572_a_at) / Fold change /veh TMPRSS4 (11747572_a_at) / RFU HAMP (11756126_x_at) / Fold change /veh HAMP (11756126_x_at) / RFU RNFT2 (11725882_a_at) / Fold change /veh RNFT2 (11725882_a_at) / RFU NR4A2 (11747474_a_at) / Fold change /veh NR4A2 (11747474_a_at) / RFU ABCC12 (11746883_a_at) / Fold change /veh ABCC12 (11746883_a_at) / RFU TMEM136 (11760407_x_at) / Fold change /veh TMEM136 (11760407_x_at) / RFU CLDN22 /// WWC2 (11732394_at) / Fold change /veh CLDN22 /// WWC2 (11732394_at) / RFU HLA-DPB1 (11760878_x_at) / Fold change /veh HLA-DPB1 (11760878_x_at) / RFU SPINT1 (11716480_a_at) / Fold change /veh SPINT1 (11716480_a_at) / RFU GAP43 (11754022_s_at) / Fold change /veh GAP43 (11754022_s_at) / RFU A4GNT (11735810_at) / Fold change /veh A4GNT (11735810_at) / RFU PRB3 (11715151_x_at) / Fold change /veh PRB3 (11715151_x_at) / RFU TUBB4B (11761932_at) / Fold change /veh TUBB4B (11761932_at) / RFU CAPN14 (11732068_a_at) / Fold change /veh CAPN14 (11732068_a_at) / RFU TMCC2 (11721928_a_at) / Fold change /veh TMCC2 (11721928_a_at) / RFU IRGQ (11745062_a_at) / Fold change /veh IRGQ (11745062_a_at) / RFU FAM174B (11720279_a_at) / Fold change /veh FAM174B (11720279_a_at) / RFU TMPRSS4 (11748680_a_at) / Fold change /veh TMPRSS4 (11748680_a_at) / RFU FAM212B (11763350_a_at) / Fold change /veh FAM212B (11763350_a_at) / RFU PLEKHG5 (11743358_a_at) / Fold change /veh PLEKHG5 (11743358_a_at) / RFU ZSCAN30 (11745921_a_at) / Fold change /veh ZSCAN30 (11745921_a_at) / RFU CMKLR1 (11741424_a_at) / Fold change /veh CMKLR1 (11741424_a_at) / RFU LOC101060620 /// MAPK8IP1 (11723275_at) / Fold change /veh LOC101060620 /// MAPK8IP1 (11723275_at) / RFU SPTSSB (11747773_x_at) / Fold change /veh SPTSSB (11747773_x_at) / RFU PRSS12 (11739890_at) / Fold change /veh PRSS12 (11739890_at) / RFU BIN1 (11741810_x_at) / Fold change /veh BIN1 (11741810_x_at) / RFU WNT11 (11732464_a_at) / Fold change /veh WNT11 (11732464_a_at) / RFU C10orf10 (11716521_a_at) / Fold change /veh C10orf10 (11716521_a_at) / RFU C5orf56 (11738089_at) / Fold change /veh C5orf56 (11738089_at) / RFU CYB561 (11721691_x_at) / Fold change /veh CYB561 (11721691_x_at) / RFU ANKRD19P (11752326_a_at) / Fold change /veh ANKRD19P (11752326_a_at) / RFU OR2T12 /// OR2T33 /// OR2T8 (11738714_s_at) / Fold change /veh OR2T12 /// OR2T33 /// OR2T8 (11738714_s_at) / RFU VCAN (11748164_a_at) / Fold change /veh VCAN (11748164_a_at) / RFU JSRP1 (11732532_at) / Fold change /veh JSRP1 (11732532_at) / RFU KRTAP10-11 (11738290_x_at) / Fold change /veh KRTAP10-11 (11738290_x_at) / RFU MYO3A (11730013_a_at) / Fold change /veh MYO3A (11730013_a_at) / RFU EBF3 (11725865_a_at) / Fold change /veh EBF3 (11725865_a_at) / RFU CAMK2N1 (11719241_x_at) / Fold change /veh CAMK2N1 (11719241_x_at) / RFU C5orf56 (11738088_a_at) / Fold change /veh C5orf56 (11738088_a_at) / RFU OLFML3 (11715873_a_at) / Fold change /veh OLFML3 (11715873_a_at) / RFU LOC100653217 /// NTM (11731650_a_at) / Fold change /veh LOC100653217 /// NTM (11731650_a_at) / RFU MAPK11 (11762145_a_at) / Fold change /veh MAPK11 (11762145_a_at) / RFU FIZ1 (11724087_x_at) / Fold change /veh FIZ1 (11724087_x_at) / RFU OASL (11726364_x_at) / Fold change /veh OASL (11726364_x_at) / RFU SOX15 (11748057_x_at) / Fold change /veh SOX15 (11748057_x_at) / RFU CD79A (11719716_a_at) / Fold change /veh CD79A (11719716_a_at) / RFU HIST1H1D (11736915_at) / Fold change /veh HIST1H1D (11736915_at) / RFU CASKIN2 (11723855_a_at) / Fold change /veh CASKIN2 (11723855_a_at) / RFU LOC730098 (11760151_x_at) / Fold change /veh LOC730098 (11760151_x_at) / RFU OR4N2 (11742367_at) / Fold change /veh OR4N2 (11742367_at) / RFU PRRT2 (11749266_a_at) / Fold change /veh PRRT2 (11749266_a_at) / RFU SNX32 (11753110_a_at) / Fold change /veh SNX32 (11753110_a_at) / RFU CDHR5 (11726645_a_at) / Fold change /veh CDHR5 (11726645_a_at) / RFU RCAN1 (11760418_a_at) / Fold change /veh RCAN1 (11760418_a_at) / RFU FAM167A (11723789_a_at) / Fold change /veh FAM167A (11723789_a_at) / RFU FAM26E (11764081_at) / Fold change /veh FAM26E (11764081_at) / RFU ISYNA1 (11749810_s_at) / Fold change /veh ISYNA1 (11749810_s_at) / RFU ACY1 (11761880_at) / Fold change /veh ACY1 (11761880_at) / RFU 11764098_at / Fold change /veh 11764098_at / RFU SAMD14 (11745864_x_at) / Fold change /veh SAMD14 (11745864_x_at) / RFU NPB (11741838_a_at) / Fold change /veh NPB (11741838_a_at) / RFU TMPRSS6 (11731388_a_at) / Fold change /veh TMPRSS6 (11731388_a_at) / RFU KRTAP10-2 (11738614_at) / Fold change /veh KRTAP10-2 (11738614_at) / RFU ARHGAP8 /// PRR5-ARHGAP8 (11727945_x_at) / Fold change /veh ARHGAP8 /// PRR5-ARHGAP8 (11727945_x_at) / RFU KRTAP5-7 /// NADSYN1 (11734609_at) / Fold change /veh KRTAP5-7 /// NADSYN1 (11734609_at) / RFU RASL12 (11751679_a_at) / Fold change /veh RASL12 (11751679_a_at) / RFU CDKN2B (11736163_a_at) / Fold change /veh CDKN2B (11736163_a_at) / RFU PRF1 (11729649_at) / Fold change /veh PRF1 (11729649_at) / RFU, ZNF638 /// ZNF638-IT1 / Fold change vs veh, ZNF638 /// ZNF638-IT1 / RFU, PANK3 / Fold change vs veh, PANK3 / RFU, SH3YL1 / Fold change vs veh, SH3YL1 / RFU, ZEB2 / Fold change vs veh, ZEB2 / RFU, NRIP1 / Fold change vs veh, NRIP1 / RFU, PTTG1IP / Fold change vs veh, PTTG1IP / RFU, CAPN2 / Fold change vs veh, CAPN2 / RFU, MED14 / Fold change vs veh, MED14 / RFU, SNORA58 / Fold change vs veh, SNORA58 / RFU, C1orf63 / Fold change vs veh, C1orf63 / RFU, LRRFIP1 / Fold change vs veh, LRRFIP1 / RFU, NDUFAF7 / Fold change vs veh, NDUFAF7 / RFU, SLC12A2 / Fold change vs veh, SLC12A2 / RFU, IBTK / Fold change vs veh, IBTK / RFU, ESF1 / Fold change vs veh, ESF1 / Fold change vs veh, TMEM50B / RFU, TAOK1 / Fold change vs veh, TAOK1 / RFU, ACBD3 / Fold change vs veh, ACBD3 / RFU, TMA16 / Fold change vs veh, TMA16 / RFU, RWDD3 / Fold change vs veh, RWDD3 / RFU, BCAT1 / Fold change vs veh, BCAT1 / RFU, EDEM3 / Fold change vs veh, EDEM3 / RFU, TMEM33 / Fold change vs veh, TMEM33 / RFU, WDR75 / Fold change vs veh, WDR75 / RFU, AHCTF1 / Fold change vs veh, AHCTF1 / RFU, TFRC / Fold change vs veh, TFRC / RFU, ZDHHC17 / Fold change vs veh, ZDHHC17 / RFU, NOM1 / Fold change vs veh, NOM1 / RFU, ARL8B / Fold change vs veh, ARL8B / RFU, ZBTB11 / Fold change vs veh, ZBTB11 / RFU, TAMM41 / Fold change vs veh, TAMM41 / RFU, KIAA1704 /// LOC100996395 / Fold change vs veh, KIAA1704 /// LOC100996395 / RFU, ING1 / Fold change vs veh, ING1 / RFU, TRMT61B / Fold change vs veh, TRMT61B / RFU, FUBP3 / Fold change vs veh, FUBP3 / RFU, TP53 / Fold change vs veh, TP53 / RFU, TNKS2 / Fold change vs veh, TNKS2 / RFU, ZFP14 / Fold change vs veh, ZFP14 / RFU, ACTR2 / Fold change vs veh, ACTR2 / RFU, PPP3R1 / Fold change vs veh, PPP3R1 / RFU, PIK3R1 / Fold change vs veh, PIK3R1 / RFU, HNRNPA1 / Fold change vs veh, HNRNPA1 / RFU, RNF170 / Fold change vs veh, RNF170 / RFU, ZNF28 / Fold change vs veh, ZNF28 / RFU, RNGTT / Fold change vs veh, RNGTT / RFU, OGT / Fold change vs veh, OGT / RFU, BRD1 / Fold change vs veh, BRD1 / RFU, MARS / Fold change vs veh, MARS / RFU, ZNF655 / Fold change vs veh, ZNF655 / RFU, FAHD1 / Fold change vs veh, FAHD1 / RFU, BDP1 / Fold change vs veh, BDP1 / RFU, LRRCC1 / Fold change vs veh, LRRCC1 / RFU, ARID1A / Fold change vs veh, ARID1A / RFU, ZNF146 / Fold change vs veh, ZNF146 / RFU, ZNF330 / Fold change vs veh, ZNF330 / RFU, GPN3 / Fold change vs veh, GPN3 / RFU, C9orf123 / Fold change vs veh, C9orf123 / RFU, N4BP2L2 / Fold change vs veh, N4BP2L2 / RFU, ARFIP1 / Fold change vs veh, ARFIP1 / RFU, FAM179B / Fold change vs veh, FAM179B / RFU, BCL10 / Fold change vs veh, BCL10 / RFU, UHRF1BP1L / Fold change vs veh, UHRF1BP1L / RFU, BET1 / Fold change vs veh, BET1 / RFU, CNOT2 / Fold change vs veh, CNOT2 / RFU, ZNF268 / Fold change vs veh, ZNF268 / Fold change vs veh, ZNF507 / RFU, DGCR2 / Fold change vs veh, DGCR2 / RFU, WDSUB1 / Fold change vs veh, WDSUB1 / Fold change vs veh, HSP90B1 /// MIR3652 / RFU, ADSS / Fold change vs veh, ADSS / RFU, GK / Fold change vs veh, GK / RFU, ZNF148 / Fold change vs veh, ZNF148 / RFU, TAF9 / Fold change vs veh, TAF9 / RFU, SLC1A5 / Fold change vs veh, SLC1A5 / RFU, SLMO2 / Fold change vs veh, SLMO2 / RFU, ABCC4 / Fold change vs veh, ABCC4 / RFU, LOC101060439 /// RAP1B / Fold change vs veh, LOC101060439 /// RAP1B / RFU, RFX7 / Fold change vs veh, RFX7 / RFU, GTPBP10 / Fold change vs veh, GTPBP10 / RFU, CNEP1R1 / Fold change vs veh, CNEP1R1 / RFU, BIVM-ERCC5 /// ERCC5 / Fold change vs veh, BIVM-ERCC5 /// ERCC5 / RFU, ILF3 / Fold change vs veh, ILF3 / RFU 11762660_at / Fold change /veh 11762660_at / RFU VCAN (11757783_s_at) / Fold change /veh VCAN (11757783_s_at) / RFU DDX43 (11728927_at) / Fold change /veh DDX43 (11728927_at) / RFU KRT8 (11758188_x_at) / Fold change /veh KRT8 (11758188_x_at) / RFU NKD1 (11759106_at) / Fold change /veh NKD1 (11759106_at) / RFU SRD5A1 (11742802_a_at) / Fold change /veh SRD5A1 (11742802_a_at) / RFU TPSAB1 /// TPSB2 (11721975_s_at) / Fold change /veh TPSAB1 /// TPSB2 (11721975_s_at) / RFU GSTM3 (11746129_a_at) / Fold change /veh GSTM3 (11746129_a_at) / RFU IL23R (11737362_x_at) / Fold change /veh IL23R (11737362_x_at) / RFU TMEM51 (11727254_a_at) / Fold change /veh TMEM51 (11727254_a_at) / RFU PIWIL2 (11732686_x_at) / Fold change /veh PIWIL2 (11732686_x_at) / RFU ORM1 (11744905_x_at) / Fold change /veh ORM1 (11744905_x_at) / RFU CCDC152 (11743942_at) / Fold change /veh CCDC152 (11743942_at) / RFU ECM1 (11717891_a_at) / Fold change /veh ECM1 (11717891_a_at) / RFU IL23R (11748794_a_at) / Fold change /veh IL23R (11748794_a_at) / RFU TNFAIP8L3 (11732012_x_at) / Fold change /veh TNFAIP8L3 (11732012_x_at) / RFU MBOAT4 (11741988_at) / Fold change /veh MBOAT4 (11741988_at) / RFU 11764193_at / Fold change /veh 11764193_at / RFU TMEM53 (11763286_at) / Fold change /veh TMEM53 (11763286_at) / RFU MAGEB2 (11727129_at) / Fold change /veh MAGEB2 (11727129_at) / RFU TMEM200A (11744735_a_at) / Fold change /veh TMEM200A (11744735_a_at) / RFU CCDC152 (11751479_a_at) / Fold change /veh CCDC152 (11751479_a_at) / RFU FAM211A (11726209_a_at) / Fold change /veh FAM211A (11726209_a_at) / RFU RGS16 (11746705_a_at) / Fold change /veh RGS16 (11746705_a_at) / RFU VCAN (11755009_s_at) / Fold change /veh VCAN (11755009_s_at) / RFU RHOB (11743442_s_at) / Fold change /veh RHOB (11743442_s_at) / RFU RGS16 (11720943_a_at) / Fold change /veh RGS16 (11720943_a_at) / RFU RGS16 (11720944_at) / Fold change /veh RGS16 (11720944_at) / RFU, VPS4B / Fold change vs veh, VPS4B / RFU, CREB1 / Fold change vs veh, CREB1 / RFU, DNAJC13 / Fold change vs veh, DNAJC13 / RFU, GNAQ / Fold change vs veh, GNAQ / RFU, CDK5R1 / Fold change vs veh, CDK5R1 / RFU, ZRANB3 / Fold change vs veh, ZRANB3 / RFU, CUL4A / Fold change vs veh, CUL4A / RFU, CCNY / Fold change vs veh, CCNY / RFU, UFL1 / Fold change vs veh, UFL1 / RFU, COG3 / Fold change vs veh, COG3 / RFU, DIAPH2 / Fold change vs veh, DIAPH2 / RFU, SKA2 / Fold change vs veh, SKA2 / RFU, AFF3 / Fold change vs veh, AFF3 / RFU, LMF1 / Fold change vs veh, LMF1 / RFU, IPO11 / Fold change vs veh, IPO11 / RFU, DFFB / Fold change vs veh, DFFB / RFU, FOXP1 / Fold change vs veh, FOXP1 / RFU, CARD8 / Fold change vs veh, CARD8 / RFU, STRN3 / Fold change vs veh, STRN3 / RFU, ADK / Fold change vs veh, ADK / RFU, RASSF2 / Fold change vs veh, RASSF2 / RFU, WIPF1 / Fold change vs veh, WIPF1 / RFU, LARP1B / Fold change vs veh, LARP1B / RFU, RASA1 / Fold change vs veh, RASA1 / RFU, RB1 / Fold change vs veh, RB1 / RFU, PPFIA1 / Fold change vs veh, PPFIA1 / RFU, MAT2A / Fold change vs veh, MAT2A / RFU, CCT5 / Fold change vs veh, CCT5 / RFU, WDR92 / Fold change vs veh, WDR92 / RFU, CUX1 / Fold change vs veh, CUX1 / RFU, TTC7A / Fold change vs veh, TTC7A / RFU, TMEM135 / Fold change vs veh, TMEM135 / RFU, DEPTOR / Fold change vs veh, DEPTOR / RFU, CPM / Fold change vs veh, CPM / RFU, DNAJB6 / Fold change vs veh, DNAJB6 / RFU, CACNA2D3 / Fold change vs veh, CACNA2D3 / RFU, DTX4 / Fold change vs veh, DTX4 / RFU, TFCP2 / Fold change vs veh, TFCP2 / RFU, GMCL1 /// GMCL1P1 / Fold change vs veh, GMCL1 /// GMCL1P1 / RFU, AEBP2 / Fold change vs veh, AEBP2 / RFU, SNHG1 /// SNORD22 /// SNORD25 /// SNORD26 /// SNORD27 /// SNORD28 /// SNORD29 /// SNORD31 / Fold change vs veh, SNHG1 /// SNORD22 /// SNORD25 /// SNORD26 /// SNORD27 /// SNORD28 /// SNORD29 /// SNORD31 / Fold change (Aza/veh), C12orf56 (ProbeSet 11735607_a_at) / Fold change (ACY-1035/veh), C12orf56 (ProbeSet 11735607_a_at) / Fold change (Aza/veh), FGFR1OP (ProbeSet 11751329_s_at) / Fold change (ACY-1035/veh), FGFR1OP (ProbeSet 11751329_s_at) / Fold change (Aza/veh), VPS36 (ProbeSet 11739960_a_at) / Fold change (ACY-1035/veh), VPS36 (ProbeSet 11739960_a_at) / RFU SYPL1 (11715823_x_at) / Fold change /veh SYPL1 (11715823_x_at) / RFU IGFBP7 (11715501_s_at) / Fold change /veh IGFBP7 (11715501_s_at) / RFU REEP3 (11722064_at) / Fold change /veh REEP3 (11722064_at) / RFU IGLL1 (11728026_x_at) / Fold change /veh IGLL1 (11728026_x_at): dose or concentration left out as unconfirmed
Settings: ProbeSet 11731610_x_at; LIST B

Nc1ncn([C@@H]2O[C@H](CO)[C@@H](O)[C@H]2O)c(=O)n1 [azacitidine]
RFU, KIAA1704 /// LOC100996395: 92.56 RFU
